Our source for the inhibition values is ChEMBL document CHEMBL1221406, “Germacrane-type sesquiterpenoids from the roots of Valeriana officinalis var. latifolia” (J Nat Prod, 2010).

Structures are written as SMILES. The source made the active and inactive calls. The rule behind the calls is not given here.

Acetylcholinesterase (Homo sapiens), sequence (P22303 whole entry): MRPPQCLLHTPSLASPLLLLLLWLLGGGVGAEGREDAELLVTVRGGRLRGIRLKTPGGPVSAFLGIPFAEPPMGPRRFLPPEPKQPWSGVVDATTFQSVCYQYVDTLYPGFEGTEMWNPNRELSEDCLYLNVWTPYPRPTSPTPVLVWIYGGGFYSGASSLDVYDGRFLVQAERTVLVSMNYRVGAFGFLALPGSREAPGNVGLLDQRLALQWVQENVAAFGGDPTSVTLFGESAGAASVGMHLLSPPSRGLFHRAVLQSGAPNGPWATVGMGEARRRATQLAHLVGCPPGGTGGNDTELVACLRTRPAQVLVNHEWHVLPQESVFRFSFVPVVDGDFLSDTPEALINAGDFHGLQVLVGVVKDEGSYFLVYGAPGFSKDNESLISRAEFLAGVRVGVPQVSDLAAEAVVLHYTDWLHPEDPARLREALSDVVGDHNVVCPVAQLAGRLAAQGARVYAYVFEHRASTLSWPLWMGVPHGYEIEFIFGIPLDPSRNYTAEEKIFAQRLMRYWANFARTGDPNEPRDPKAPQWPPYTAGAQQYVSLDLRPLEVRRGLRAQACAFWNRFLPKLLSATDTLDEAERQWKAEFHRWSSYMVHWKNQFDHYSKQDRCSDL

This experiment has as its target Acetylcholinesterase (Homo sapiens) (UniProt P22303). As to the kind of experiment: Inhibition of AchE at 100 uM after 30 mins by Ellman's method.
With `C=C1CC[C@H]2[C@@H](/C=C(\C(=O)O)CC[C@@H]1O)C2(C)C`, the inhibition (usually the change of the read-out against control, counted positive when it falls) was “inactive”. With `CC(=O)O[C@H]1C[C@@]2(C)O[C@@H]2CC/C(C=O)=C\[C@H]2[C@@H]1C2(C)C`, the inhibition entry was “inactive”. The same measure for `CC(=O)OC/C1=C\CC/C(C=O)=C\[C@@H]2[C@@H](CC1)C2(C)C`: “inactive”; for `CC1(C)[C@@H]2CC[C@@]3(C=O)O[C@@H]3CC/C(C=O)=C\[C@@H]21`: “inactive”. The same measure for `CC1(C)[C@@H]2CC[C@@]3(C)O[C@@H]3CC/C(C=O)=C\[C@@H]21`: 25.9%. Turning to `C/C1=C\CC/C(C=O)=C\[C@H]2[C@@H](C[C@H]1O)C2(C)C`, the inhibition result was “inactive”. Regarding `C/C1=C\CC/C(C(=O)O)=C/[C@@H]2[C@H](CC1)C2(C)C`, the inhibition entry was “inactive”.

In the case of `CC(=O)OC[C@@]12CC[C@@H]3[C@H](/C=C(/C=O)CC[C@H]1O2)C3(C)C`, the inhibition entry was “inactive”. Consider `CC(=O)O[C@H]1C/C(C)=C/CC/C(C(=O)O)=C/[C@@H]2[C@H]1C2(C)C`, for which the inhibition entry was “inactive”.
